Test results: US10294202B2, “Pyrrolidinones as herbicides” (FMC Corporation, priority 2013, dated 2019)

Tests used:
ragweed = assay: Test A pre-/postemergence herbicide test; format: in vivo, Ambrosia elatior
Procedure, shortened: (§1)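 Both application timings used compounds in a non-phytotoxic solvent plus surfactant. Pre-emergence: soil sprayed directly after seeding into loam/sand. Post-emergence: foliage of 2–10 cm seedlings (1–2 leaves) sprayed. Injury rated ~10 days later, 0–100.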

corn = assay: Test A pre-/postemergence herbicide test; format: in vivo, Zea mays; settings: Postemergence
Procedure, shortened: as §1

barnyardgrass [1] = assay: Test A pre-/postemergence herbicide test; format: in vivo, Echinochloa crus-galli
Procedure, shortened: as §1

galium = assay: Test A postemergence herbicide test; format: in vivo, Galium aparine
Procedure, shortened: (§2)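 Plants at the one- to two-leaf stage, 2–10 cm tall, grown in loam/sand pots, received postemergence sprays of the test chemicals. After about 10 days in the greenhouse, injury was scored visually against untreated controls on a 0–100 scale (0 none, 100 complete control).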

pigweed = assay: Test A pre-/postemergence herbicide test; format: in vivo, Amaranthus retroflexus
Procedure, shortened: as §1

kochia = assay: Test A pre-/postemergence herbicide test; format: in vivo, Kochia scoparia
Procedure, shortened: as §1

ducksalad = assay: Test B flooded paddy test; format: in vivo, Heteranthera limosa; settings: 500 g ai/ha, Flood; scale of 0 to 100 where 0 is no effect and 100 is complete control
Procedure, shortened: (§3)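 2-leaf plants; flood 3 cm over soil; compound into paddy water; depth held. Greenhouse 13–15 d. Visual rating vs controls, 0 (no effect) to 100 (complete control); dash = not tested.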

ryegrass, Italian = assay: Test A pre-/postemergence herbicide test; format: in vivo, Lolium multiflorum
Procedure, shortened: as §1

sedge, umbrella = assay: Test B flooded paddy test; format: in vivo, Cyperus difformis; settings: 500 g ai/ha, Flood; scale of 0 to 100 where 0 is no effect and 100 is complete control
Procedure, shortened: as §3

giant foxtail = assay: Test A pre-/postemergence herbicide test; format: in vivo, Setaria faberii
Procedure, shortened: as §1

wheat = assay: Test A pre-/postemergence herbicide test; format: in vivo, Triticum aestivum; settings: Postemergence
Procedure, shortened: as §1

rice = assay: Test B flooded paddy test; format: in vivo, Oryza sativa; settings: 500 g ai/ha, Flood; scale of 0 to 100 where 0 is no effect and 100 is complete control
Procedure, shortened: as §3

blackgrass = assay: Test A postemergence herbicide test; format: in vivo, Alopecurus myosuroides
Procedure, shortened: as §2

barnyardgrass [2] = assay: Test B flooded paddy test; format: in vivo, Echinochloa crus-galli; settings: 500 g ai/ha, Flood; scale of 0 to 100 where 0 is no effect and 100 is complete control
Procedure, shortened: as §3

[3] = Postemergence, 125 g ai/ha, visual rating on 0 to 100 scale (0 no effect, 100 complete control), approx. 10 days
[4] = Postemergence, 500 g ai/ha, 0 to 100 scale (0 no effect, 100 complete control)
[5] = Preemergence, 125 g ai/ha, 0 to 100 scale where 0 is no effect and 100 is complete control
[6] = preemergence, 500 g ai/ha, 0 to 100 scale, 0 is no effect and 100 is complete control
[7] = 125 g ai/ha, visual rating on 0 to 100 scale (0 no effect, 100 complete control), approx. 10 days
[8] = 500 g ai/ha, 0 to 100 scale (0 no effect, 100 complete control)
[9] = Preemergence, 500 g ai/ha, visual rating on 0 to 100 scale (0 no effect, 100 complete control)
[10] = 125 g ai/ha, 0 to 100 scale, 0 is no effect, 100 is complete control
[11] = Postemergence, 125 g ai/ha, 0 to 100 scale, 0 is no effect, 100 is complete control

O=C1NCC(c2cnn(CC(F)(F)F)c2)C1C(=O)Nc1ccccc1F (stereo not drawn) [Compound 298]
Plant response rating, Ragweed (ragweed; [3]): 0 | Plant response rating, Ragweed (ragweed; [4]): 0 | Plant response rating, Ragweed (ragweed; [5]): 0 | Plant response rating, Ragweed (ragweed; [6]): 0 | Plant response rating, Corn (corn; [7]): 0 | Plant response rating, Corn (corn; [8]): 0 | Plant response rating, Barnyardgrass (barnyardgrass [1]; [3]): 0 | Plant response rating, Barnyardgrass (barnyardgrass [1]; [4]): 0 | Plant response rating, Barnyardgrass (barnyardgrass [1]; [5]): 0 | Plant response rating, Barnyardgrass (barnyardgrass [1]; [6]): 0 | Plant response rating, Galium (galium; [7]): 0 | Plant response rating, Galium (galium; [8]): 0 | Plant response rating, Pigweed (pigweed; [3]): 0 | Plant response rating, Pigweed (pigweed; [4]): 0 | Plant response rating, Pigweed (pigweed; [5]): 0 | Plant response rating, Pigweed (pigweed; [6]): 0 | Plant response rating, Kochia (kochia; [3]): 0 | Plant response rating, Kochia (kochia; [4]): 0 | Plant response rating, Kochia (kochia; [5]): 0 | Plant response rating, Kochia (kochia; [6]): 0 | Plant response rating, Ducksalad (ducksalad): 0 | Plant response rating, Ryegrass, Italian (ryegrass, Italian; [3]): 0 | Plant response rating, Ryegrass, Italian (ryegrass, Italian; [4]): 0 | Plant response rating, Ryegrass, Italian (ryegrass, Italian; [5]): 0 | Ryegrass, Italian plant response rating (ryegrass, Italian; [9]): 0 | Plant response rating, Sedge, Umbrella (sedge, umbrella): 0 | Plant response rating, Foxtail, Giant (giant foxtail; [3]): 0 | Plant response rating, Foxtail, Giant (giant foxtail; [4]): 0 | Plant response rating, Foxtail, Giant (giant foxtail; [5]): 0 | Plant response rating, Foxtail, Giant (giant foxtail; [6]): 0 | Plant response rating, Wheat (wheat; [7]): 0 | Plant response rating, Wheat (wheat; [8]): 0 | Plant response rating, Rice (rice): 0 | Plant response rating, Blackgrass (blackgrass; [7]): 0 | Plant response rating, Blackgrass (blackgrass; [8]): 0 | Plant response rating, Barnyardgrass (barnyardgrass [2]): 0

CC(C)c1cccc(C2CNC(=O)C2C(=O)Nc2ccccc2C(F)(F)F)c1 (stereo not drawn) [Compound 320]
Plant response rating, Ragweed (ragweed; [3]): 0 | Plant response rating, Ragweed (ragweed; [4]): 30 | Plant response rating, Ragweed (ragweed; [5]): 0 | Ragweed plant response rating (ragweed; [9]): 30 | Plant response rating, Corn (corn; [7]): 0 | Plant response rating, Corn (corn; [8]): 0 | Plant response rating, Barnyardgrass (barnyardgrass [1]; [3]): 50 | Plant response rating, Barnyardgrass (barnyardgrass [1]; [4]): 90 | Plant response rating, Barnyardgrass (barnyardgrass [1]; [5]): 20 | Barnyardgrass plant response rating (barnyardgrass [1]; [9]): 80 | Plant response rating, Galium (galium; [7]): 0 | Plant response rating, Galium (galium; [8]): 0 | Plant response rating, Pigweed (pigweed; [3]): 0 | Plant response rating, Pigweed (pigweed; [4]): 0 | Plant response rating, Pigweed (pigweed; [5]): 0 | Pigweed plant response rating (pigweed; [9]): 0 | Plant response rating, Kochia (kochia; [3]): 20 | Plant response rating, Kochia (kochia; [4]): 20 | Plant response rating, Kochia (kochia; [5]): 0 | Kochia plant response rating (kochia; [9]): 20 | Plant response rating, Ducksalad (ducksalad): 100 | Plant response rating, Ryegrass, Italian (ryegrass, Italian; [3]): 0 | Plant response rating, Ryegrass, Italian (ryegrass, Italian; [4]): 30 | Plant response rating, Ryegrass, Italian (ryegrass, Italian; [5]): 20 | Ryegrass, Italian plant response rating (ryegrass, Italian; [9]): 50 | Plant response rating, Sedge, Umbrella (sedge, umbrella): 0 | Plant response rating, Foxtail, Giant (giant foxtail; [3]): 30 | Plant response rating, Foxtail, Giant (giant foxtail; [4]): 70 | Plant response rating, Foxtail, Giant (giant foxtail; [5]): 30 | Foxtail, Giant plant response rating (giant foxtail; [9]): 90 | Plant response rating, Wheat (wheat; [7]): 0 | Plant response rating, Wheat (wheat; [8]): 0 | Plant response rating, Rice (rice): 0 | Plant response rating, Blackgrass (blackgrass; [7]): 0 | Plant response rating, Blackgrass (blackgrass; [8]): 20 | Plant response rating, Barnyardgrass (barnyardgrass [2]): 45

O=C1NCC(c2ccc(Cl)c(Cl)c2)C1C(=O)Nc1ccc(F)cc1F (racemic) [Compound 272]
Plant response rating, Ragweed (ragweed; [3]): 40 | Plant response rating, Ragweed (ragweed; [4]): 0 | Plant response rating, Ragweed (ragweed; [5]): 0 | Plant response rating, Ragweed (ragweed; [6]): 0 | Plant response rating, Corn (corn; [10]): 0 | Plant response rating, Corn (corn; [8]): 10 | Plant response rating, Barnyardgrass (barnyardgrass [1]; [11]): 50 | Plant response rating, Barnyardgrass (barnyardgrass [1]; [4]): 80 | Plant response rating, Barnyardgrass (barnyardgrass [1]; [5]): 70 | Plant response rating, Barnyardgrass (barnyardgrass [1]; [6]): 90 | Plant response rating, Galium (galium; [10]): 30 | Plant response rating, Galium (galium; [8]): 50 | Plant response rating, Pigweed (pigweed; [3]): 0 | Plant response rating, Pigweed (pigweed; [4]): 20 | Plant response rating, Pigweed (pigweed; [5]): 0 | Plant response rating, Pigweed (pigweed; [6]): 30 | Plant response rating, Kochia (kochia; [11]): 20 | Plant response rating, Kochia (kochia; [4]): 60 | Plant response rating, Kochia (kochia; [5]): 0 | Plant response rating, Kochia (kochia; [6]): 20 | Plant response rating, Ducksalad (ducksalad): 100 | Plant response rating, Ryegrass, Italian (ryegrass, Italian; [3]): 0 | Plant response rating, Ryegrass, Italian (ryegrass, Italian; [4]): 0 | Plant response rating, Ryegrass, Italian (ryegrass, Italian; [5]): 0 | Plant response rating, Ryegrass, Italian (ryegrass, Italian; [6]): 0 | Plant response rating, Sedge, Umbrella (sedge, umbrella): 0 | Plant response rating, Foxtail, Giant (giant foxtail; [11]): 60 | Plant response rating, Foxtail, Giant (giant foxtail; [4]): 80 | Plant response rating, Foxtail, Giant (giant foxtail; [5]): 90 | Plant response rating, Foxtail, Giant (giant foxtail; [6]): 90 | Plant response rating, Wheat (wheat; [7]): 0 | Plant response rating, Wheat (wheat; [8]): 0 | Plant response rating, Rice (rice): 0 | Plant response rating, Blackgrass (blackgrass; [10]): 0 | Plant response rating, Blackgrass (blackgrass; [8]): 30 | Plant response rating, Barnyardgrass (barnyardgrass [2]): 20
